Earlier results on one compound are cited in patent publication US20230228766A1, “SERUM BIOMARKERS FOR PREDICTING AND PREVENTING HEMORRHAGIC STROKE” (Texas Tech University System, priority 2020, published 2023).

The structures appear in SMILES notation.

The conditions of the series: free PRG in blood.

For `CC(=O)[C@H]1CC[C@H]2[C@@H]3CCC4=CC(=O)CC[C@]4(C)[C@H]3CC[C@]12C` [PRG, progesterone], the “half-life of free, active form in blood” value is 5 to 10 min.
